Data from patent US20160075682A1, “INHIBITORS OF NICOTINAMIDE PHOSPHORIBOSYLTRANSFERASE, COMPOSITIONS, PRODUCTS AND USES THEREOF” (UNIVERSITÀ DEGLI STUDI DEL PIEMONTE ORIENTALE "AMEDEO …, priority 2013, published 2016).

Key:
[1] = system: SH-SY5Y, HeLa; experiment: MTT cell proliferation assay and trypan blue count (cell viability); assay type: cell-based; details: cells treated for 48 and 72 hours; read-out: IC50 values (inhibition of cellular proliferation, MTT assay and trypan blue assay)
Description: Cell based assays were used to evaluate the possible cytotoxic effects of some compounds. To measure cytotoxic effects two different methods were used, a MTT cell proliferation assay and trypan blue count.
The Trypan blue assay is used to determine the number of viable cells present in a cell suspension. […] Briefly, 8×10^5 cells (SH-SY5Y, HeLa; obtained from ATCC, LGC standards, Sesto San Giovanni) were seeded in 24-well plates and treated for 48 and 72 hours. After the treatments, cells were stained with trypan blue and counted.
To analyze cell viability was used the colorimetric 3-(4,5-dimethylthiazol-2-yl)-2,5-diphenyltetrazolium bromide (MTT) method. The assay is based on the cleavage of the yellow tetrazolium salt MTT to purple formazan crystals by metabolic active cells. Since reduction of MTT can only occur in metabolically active cells, the level of activity is a measure of the viability of cells and conversely the cytotoxic effects of various treatments. Briefly, 8×10^5 cells (SH-SY5Y, code number CRL-2266; and HeLa, code number CCL-2) were seeded in 24-well plates and treated for 48 and 72 hours. Compounds were dissolved in DMSO and were added to the cells to give a final DMSO concentration no greater than 0.5%. Cells were washed once in Locke buffer and 300 μl of MTT (250 μg/ml in Locke buffer) were added before returning the cells to the incubator for 1 h to allow the formation of the purple formazan crystals. After 1 h, 600 μl of isopropanol/0.1 M HCl were added to each well, and the absorbance was read at 570 nm in a plate reader (Victor3V, PerkinElmer Life Sciences). For some compounds a dose response curve and IC50 for the effects on cell viability and proliferation were calculated. Cell lines used were originally purchased from ATCC (LGC standards. Sesto San Giovanni).
To evaluate the ability of each compound to inhibit cellular proliferation, cells were seeded in 24-well plates and treated for 48 and 72 hours. After the treatments the MTT assay and trypan blue assay were performed.

[2] = molecular target: T1, NAMPT (Homo sapiens, UniProt P43490); experiment: Direct inhibition of NAMPT enzymatic activity (Cyclex NAMPT colorimetric Assay Kit); assay type: biochemical; details: as assessed with a cycling assay
T1 construct: endogenous in cells; host or cells: SH-SY5Y and HeLa
T1 sequence (P43490 whole entry): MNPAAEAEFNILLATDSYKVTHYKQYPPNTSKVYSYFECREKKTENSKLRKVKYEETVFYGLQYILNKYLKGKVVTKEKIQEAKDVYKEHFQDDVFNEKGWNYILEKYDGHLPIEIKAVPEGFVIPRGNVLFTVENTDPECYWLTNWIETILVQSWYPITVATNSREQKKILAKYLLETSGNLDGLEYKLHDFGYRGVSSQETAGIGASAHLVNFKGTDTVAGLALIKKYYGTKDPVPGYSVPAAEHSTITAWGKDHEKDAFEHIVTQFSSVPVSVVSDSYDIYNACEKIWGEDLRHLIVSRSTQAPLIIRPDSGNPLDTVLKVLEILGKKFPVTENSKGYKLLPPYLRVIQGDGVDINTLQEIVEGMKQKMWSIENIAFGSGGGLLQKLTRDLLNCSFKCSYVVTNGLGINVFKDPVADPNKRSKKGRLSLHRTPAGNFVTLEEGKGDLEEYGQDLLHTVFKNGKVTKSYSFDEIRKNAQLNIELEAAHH
Description: Determination of the direct activity of compounds on NAMPT was performed using a commercial kit, Cyclex NAMPT colorimetric Assay Kit.

| Structure (SMILES) | melting point | IC50 [1] | inhibition of the enzymatic activity of NAMPT [2] |
| --- | --- | --- | --- |
| O=S(=O)(NCCc1ccc(Cn2cc(-c3cccnc3)nn2)cc1)c1ccccc1Br [2-bromo-N-(4-((4-(pyridin-3-yl)-1H-1,2,3-triazol-1-yl)methyl)phenethyl)benzenesulfonamide] | – | < 0.3 µM | – |
| O=C(NCc1ccc(CCn2cc(-c3cccnc3)nn2)cc1)c1ccccc1-c1ccccc1 [N-(4-(2-(4-(pyridin-3-yl)-1H-1,2,3-triazol-1-yl)ethyl)benzyl)-[1,1′-biphenyl]-2-carboxamide] | 204 to 205 °C | < 0.3 µM | – |
| c1ccc(-c2ccccc2-c2cn(CCc3ccc(Cn4cc(-c5cccnc5)nn4)cc3)nn2)cc1 [3-(1-(4-(2-(4-([1,1′-biphenyl]-2-yl)-1H-1,2,3-triazol-1-yl)ethyl)benzyl)-1H-1,2,3-triazol-4-yl)pyridine] | 139 to 141 °C | < 0.3 µM | – |
| O=C(Nc1ccccc1-c1ccccc1)OCCc1ccc(Cn2cc(-c3cccnc3)nn2)cc1 [4-((4-(pyridin-3-yl)-1H-1,2,3-triazol-1-yl)methyl)phenethyl[1,1′-biphenyl]-2-ylcarbamate] | 131 to 132 °C | < 0.3 µM | – |
| O=S(=O)(NCCCCCCCCn1cc(-c2cccnc2)nn1)c1ccccc1Br [2-bromo-N-(8-(4-(pyridin-3-yl)-1H-1,2,3-triazol-1-yl)octyl)benzene sulfonamide] | – | < 0.3 µM | – |
| c1ccc(-c2ccccc2OCc2ccc(CCn3cc(-c4cccnc4)nn3)cc2)cc1 [3-(1-(4-(([1,1′-biphenyl]-2-yloxy)methyl)phenethyl)-1H-1,2,3-triazol-4-yl)pyridine] | 136 to 137 °C | < 0.3 µM | – |
| O=C(NCCCCCCCn1cc(-c2cccnc2)nn1)c1ccccc1I [2-iodo-N-(7-(4-(pyridin-3-yl)-1H-1,2,3-triazol-1-yl)heptyl)benzamide] | 106 to 108 °C | < 0.3 µM | – |
| c1ccc(-c2ccccc2-c2cn(CCCCCCCCn3cc(-c4cccnc4)nn3)nn2)cc1 [3-(1-(8-(4-([1,1′-byphenyl]-2-yl)-1H-1,2,3-triazol-1-yl)octyl)-1H-1,2,3-triazol-4-yl)pyridine] | 136 to 140 °C | < 0.3 µM | – |
| c1ccc(-c2cn(CCCCCCn3cc(-c4cccnc4)nn3)nn2)cc1 [3-(1-(6-(4-phenyl-1H-1,2,3-triazol-1-yl)hexyl)-1H-1,2,3-triazol-4-yl)pyridine] | 172 to 173 °C | – | – |
| O=C(NCCCc1ccc(-n2cc(-c3cccnc3)nn2)cc1)c1ccccc1-c1ccccc1 [N-(3-(4-(4-(pyridin-3-yl)-1H-1,2,3-triazol-1-yl)phenyl)propyl)-[1,1′-biphenyl]-2-carboxamide] | 202 to 203 °C | < 0.3 µM | – |
| O=S(=O)(NCCCCCCn1cc(-c2cccnc2)nn1)c1ccccc1Br [2-bromo-N-(6-(4-(pyridin-3-yl)-1H-1,2,3-triazol-1-yl)hexyl)benzene sulfonamide] | – | < 0.3 µM | – |
| O=S(=O)(NCCCCCCCn1cc(-c2cccnc2)nn1)c1ccccc1Br [2-bromo-N-(7-(4-(pyridin-3-yl)-1H-1,2,3-triazol-1-yl)heptyl)benzene sulfonamide] | – | < 0.3 µM | – |
| c1ccc(-c2cn(CCCCCCCn3cc(-c4cccnc4)nn3)nn2)cc1 [3-(1-(7-(4-phenyl-1H-1,2,3-triazol-1-yl)heptyl)-1H-1,2,3-triazol-4-yl)pyridine] | 143 to 144 °C | – | – |
| O=S(=O)(NCCc1ccc(Cn2cc(-c3cccnc3)nn2)cc1)c1ccccc1-c1ccccc1 [N-(4-((4-(pyridin-3-yl)-1H-1,2,3-triazol-1-yl)methyl)phenethyl)-[1,1′-biphenyl]-sulfonamide] | – | < 0.3 µM | – |
| c1ccc(-c2ccccc2CNCCc2ccc(Cn3cc(-c4cccnc4)nn3)cc2)cc1 [N-([1,1′-biphenyl]-ylmethyl)-2-(4-((4-(pyridin-3-yl)-1H-1,2,3-triazol-1-yl)methy)phenyl)ethanamine] | – | < 0.3 µM | – |
| NC(=O)c1ccccc1-c1ccccc1C(=O)NCCCCCCCn1cc(-c2cccnc2)nn1 [N^2-(7-(4-(pyridin-3-yl)-1H-1,2,3-triazol-1-yl)heptyl)-[1,1′-biphenyl]-2,2′-dicarboxamide] | 100 to 101 °C | – | – |

The next lines start with the values.

| melting point | IC50 [1] | inhibition of the enzymatic activity of NAMPT [2] | Structure (SMILES) |
| --- | --- | --- | --- |
| 123 to 124 °C | – | – | O=C(NCCCCCCCn1cc(-c2cccnc2)nn1)c1ccccc1 [N-(7-(4-(pyridin-3-yl)-1H-1,2,3-triazol-1-yl)heptyl)benzamide] |
| 90.5 to 91 °C | – | – | c1ccc(OCCCCCCCn2cc(-c3cccnc3)nn2)cc1 [3-(1-(7-phenoxyheptyl)-1H-1,2,3-triazol-4-yl)pyridine] |
| – | < 0.3 µM | – | O=C(O)c1ccc(-c2ccccc2OCCCCCCn2cc(-c3cccnc3)nn2)cc1 [2′-((6-(4-(pyridin-3-yl)-1H-1,2,3-triazol-1-yl)hexyl)oxy)-[1,1′-biphenyl]-4-carboxylic acid] |
| 55 to 58 °C | < 0.3 µM | – | c1ccc(-c2ccccc2CNCCCCCCn2cc(-c3cccnc3)nn2)cc1 [N-([1,1′-biphenyl]-2-ylmethyl)-6-(4-(pyridin-3-yl)-1H-1,2,3-triazol-1-yl)hexan-1-amine] |
| – | < 0.3 µM | able to inhibit | Cc1ccccc1-c1ccccc1C(=O)NCCCCCCCn1cc(-c2cccnc2)nn1 [2′-methyl-N-(7-(4-(pyridin-3-yl)-1H-1,2,3-triazol-1-yl)heptyl)-[1,1′-biphenyl]-2-carboxamide] |
| – | < 0.3 µM | – | Cc1ccccc1-c1ccccc1OCCCCCCn1cc(-c2cccnc2)nn1 [3-(1-(6-((2′-methyl-[1,1′-biphenyl]-2-yl)oxy)hexyl)-1H-1,2,3-triazol-4-yl)pyridine] |
| 139 to 140 °C | < 0.3 µM | – | c1ccc(-c2ccccc2-c2cn(CCCCCCn3cc(-c4cccnc4)nn3)nn2)cc1 [3-(1-(6-(4-([1,1′-byphenyl]-2-yl)-1H-1,2,3-triazol-1-yl)hexyl)-1H-1,2,3-triazol-4-yl)pyridine] |
| 81 to 85 °C | < 0.3 µM | – | O=C(Nc1ccccc1-c1ccccc1)OCCCCCCCCn1cc(-c2cccnc2)nn1 [8-(4-(pyridin-3-yl)-1H-1,2,3-triazol-1-yl)octyl[1,1′-biphenyl]-2-ylcarbamate] |
| 102 to 103 °C | – | – | c1ccc(OCCCCCCCCn2cc(-c3cccnc3)nn2)cc1 [3-(1-(8-phenoxyoctyl)-1H-1,2,3-triazol-4-yl)pyridine] |
| – | < 0.3 µM | able to inhibit | O=C(Nc1ccccc1-c1ccccc1)OCCCCCCCn1cc(-c2cccnc2)nn1 [7-(4-(pyridin-3-yl)-1H-1,2,3-triazol-1-yl)heptyl[1,1′-biphenyl]-2-ylcarbamate] |
| 90 to 95 °C | < 0.3 µM | – | O=C(NCCCCCCCCn1cc(-c2cccnc2)nn1)Nc1ccccc1-c1ccccc1 [1-([1,1′-biphenyl]-2-il)-3-(8-(4-(pyridin-3-yl)-1H-1,2,3-triazol-1-yl)octyl)urea] |
| – | < 0.3 µM | able to inhibit | c1ccc(-c2ccccc2OCCCCCCCCn2cc(-c3cccnc3)nn2)cc1 [3-(1-(8-([1,1′-biphenyl]-2-yloxy)octyl)-1H-1,2,3-triazol-4-yl)pyridine] |
| 74 to 75 °C | – | – | c1ccc(OCCCCCCn2cc(-c3cccnc3)nn2)cc1 [3-(1-(6-phenoxyhexyl)-1H-1,2,3-triazol-4-yl)pyridine] |
| – | < 0.3 µM | – | O=S(=O)(NCCCCCCn1cc(-c2cccnc2)nn1)c1ccccc1-c1ccccc1 [N-(6-(4-(pyridin-3-yl)-1H-1,2,3-triazol-1-yl)hexyl) biphenyl-2-sulfonamide] |
| 86 to 91 °C | < 0.3 µM | – | c1ccc(-c2ccccc2CNCCCCCCCn2cc(-c3cccnc3)nn2)cc1 [N-([1,1′-biphenyl]-2-ylmethyl)-7-(4-(pyridin-3-yl)-1H-1,2,3-triazol-1-yl)heptan-1-amine] |
| – | < 0.3 µM | – | O=S(=O)(NCCCCCCCn1cc(-c2cccnc2)nn1)c1ccccc1-c1ccccc1 [N-(7-(4-(pyridin-3-yl)-1H-1,2,3-triazol-1-yl)heptyl) biphenyl-2-sulfonamide] |
| – | < 0.3 µM | – | c1ccc(-c2ccccc2CNCCCCCCCCn2cc(-c3cccnc3)nn2)cc1 [N-([1,1′-biphenyl]-2-ylmethyl)-8-(4-(pyridin-3-yl)-1H-1,2,3-triazol-1-yl)octan-1-amine] |
| – | < 0.3 µM | – | O=C(O)c1ccc(-c2ccccc2C(=O)NCCCCCCCn2cc(-c3cccnc3)nn2)cc1 [2′-((7-(4-(pyridin-3-yl)-1H-1,2,3-triazol-1-yl)heptyl)carbamoyl)-[1,1′-biphenyl]-4-carboxylic acid] |
| – | < 0.3 µM | – | O=C(O)c1cccc(-c2ccccc2OCCCCCCn2cc(-c3cccnc3)nn2)c1 [2′-((6-(4-(pyridin-3-yl)-1H-1,2,3-triazol-1-yl)hexyl)oxy)-[1,1′-biphenyl]-3-carboxylic acid] |
